Assay results reported in PMC11336141.
Bridge positions count the residues as written; N and C are the ends. Square brackets hold non-standard residues; d marks the D form. Peptide text beside a SMILES is read from it.

Legend:
Dr-sstr2b = assay: PRESTO-Tango β-arrestin recruitment assay, Dr-sstr2b; format: cell-based, zebrafish (Danio rerio); details: for pEC50: Dr-sstr2b, Fig. S15D
Text: (§1) 3xHA-tagged human SSTR2 construct was obtained from cDNA.org (cDNA resource center, Bloomsburg PA, US). […] Kirill Martemyanov (University of Florida, US). Tango constructs for human SSTR1-5 were kind gifts from Prof. Bryan Roth (University of North Carolina, Chapel Hill, US) (Addgene kit # 1000000068). Tango constructs for fish Dr-sstr2a (sequence accession number: XP_005170178.1) and Dr-sstr2b (sequence accession number: XP_017210358.1) were custom-synthesized by Twist Biosciences using the Tango construct template as described in Kroeze et al., 2015[28]. 3xHA-tagged Dr-sstr2a and 3xHA tagged Dr-sstr2b constructs were inserted into pcDNA3.1 backbone. All DNA constructs were sequenced and confirmed prior to use.
The assay was done as described in ref. [12].

human SSTR2 (Gi2) = molecular target: T1, human SSTR2 (Gi2) (Homo sapiens, UniProt P30874); assay: G protein activation (BRET dissociation) assay, Gi2 at hSSTR2; format: cell-based;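 for Emax ± S.E.M.: percent of the maximal response to the reference somatostatin agonist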
T1 construct: host or cells: HEK293T cells
Experimental: (§3) HEK293T cells were seeded onto 6-well plates at a density of 750,000 cells/well. […] 16 to 24 hours post-transfection, HEK293T cells were seeded onto white 96 well plate (PerkinElmer) coated with poly-L-lysine (PLL) at a density of 40,000 cells/well and were allowed to grow overnight. On the day of assay, cells were washed once with phosphate-based saline (PBS) and 80 µL of assay buffer which composed of PBS with 0.5 mM MgCl2 and 0.1% glucose, pH 7.4, were added onto each well. 10 µL of Nluc luciferase substrate furimazine (Promega) were added onto each well and incubated for 3 minutes.
(§4) The net BRET ratio was determined by subtracting the BRET ratio of drugs with the BRET ratio of vehicle control. Net BRET ratio over time was then plotted using GraphPad Prism (v.9.4.1), and the area-under-curve of net BRET ratio over time course for each ligand concentration tested were then determined and plotted against log(concentration) of drugs tested. […] Concentration response curves were fitted with a 4-parameter logistic Eq. (1) using GraphPad Prism (v.9.4.1):1 Y=Emin+(Emax−Emin)/1+10^logEC50−X×Hillslope

human SSTR2 (GoB) = molecular target: T2, human SSTR2 (GoB) (Homo sapiens, UniProt P30874); assay: G protein activation (BRET dissociation) assay, GoB at hSSTR2; format: cell-based;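 for Emax ± S.E.M.: percent of the maximal response to the reference somatostatin agonist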
T2 construct: host or cells: HEK293T cells
Experimental: as §3, §4

Dr-sstr2b (GoA) = assay: G protein dissociation assay, GoA at Dr-sstr2b; format: cell-based, zebrafish (Danio rerio)
Text: as §1
Error bars represent means ± S.E.M. of n = 3 in technical duplicates.

isolated mouse islets = assay: Glucagon secretion from isolated islets; format: cell-based, mouse (C57BL/6J); details: for Islet glucagon secretion: -9 log M peptide
Experimental: Female C57BL/6 J mice of 12–20 weeks were used for the islet secretion. Mice were killed by cervical dislocation and pancreatic islets were isolated as previously described. […] The islets were subsequently incubated with or without drugs in 10 mM glucose KRB for an hour. Supernatant from both incubations were collected. Total islet glucagon content was determined by acid-ethanol extraction. Both the supernatant and the acid-ethanol content were stored at −80 °C until further analysis. Glucagon in both supernatant and content were measured using U-plex metabolic 2-plex combo (mouse insulin and glucagon) kit (Meso Scale Diagnostic; catalog no: K15303K) according to manufacturer’s instruction.
(§2) Data analysis were performed in GraphPad Prism (v.9.4.1). Statistical analysis were performed using two-way repeated measure analysis of variance (ANOVA) with Šidák test for isolated islets glucagon secretion and one-way repeated measure ANOVA with Dunnett's test for rat pancreas perfusion experiments. Statistical significance was taken as p < 0.05.

perfused rat pancreas [1] = assay: Rat pancreas perfusion, glucagon output; set-up: species or system rat (Wistar)
Experimental: Non-fasted rats were anesthetized by a subcutaneous injection of a balanced mix of hypnorm and midazolam (0.3 mL/100 g body weight). Rats were placed on a heated operating table (37 °C) and the abdomen were opened. Blood vessels were tied off before removing the large and small intestines, the stomach, and the spleen. Then, the kidneys were ligated. […] The perfusion buffer was a modified Krebs-Ringer bicarbonate buffer with 5% (w/v) dextran T-70 (Pharmacosmos, Holbaek, Denmark), 0.1% (w/v) BSA (fraction V), 3.5 mM glucose and 3 mM vamin (Fresenius Kabi, Copenhagen, Denmark), pH adjusted to 7.4. […] Once perfusion of the pancreas was established, a catheter was inserted in the vena portae to collect the venous effluent and the rat was sacrificed by perforation of the diaphragm. After a 30-minute equilibration period, samples were collected every minute for the duration of the protocol. […] 10 mM L-Arginine was used as a positive control. Collected samples were immediately transferred on ice and stored at −20 °C until hormone analysis. Glucagon, insulin, and somatostatin concentrations in venous effluents were quantified by use of validated in-house radioimmunoassays (RIA) as previously described[36] (see below). Statistical analysis were performed where appropriate using one-way analysis of variance (ANOVA) with Dunnett’s post-test. Statistical significance was taken as p < 0.05.
Glucagon concentration in perfusion samples were measured by a validated in-house RIAs using the 4305 antibody, which reacts with the C-terminal epitope of glucagon[36] and no other cleavage products of pro-glucagon. Insulin concentrations were measured with the 2006 antibody, which measures all isoforms of rat insulin. […] Assay sensitivity was <1 pmol/L ( < 5 pmol/L for insulin detection), allowing reliable measurements of increments of at least 25 fmol/min.
as §2

perfused rat pancreas [2] = assay: Rat pancreas perfusion, somatostatin output; set-up: species or system rat (Wistar); details: 0.1 nM, 1 nM and 10 nM, […] glucose, n = 10 rats
Experimental: Non-fasted rats were anesthetized by a subcutaneous injection of a balanced mix of hypnorm and midazolam (0.3 mL/100 g body weight). Rats were placed on a heated operating table (37 °C) and the abdomen were opened. Blood vessels were tied off before removing the large and small intestines, the stomach, and the spleen. Then, the kidneys were ligated. […] The perfusion buffer was a modified Krebs-Ringer bicarbonate buffer with 5% (w/v) dextran T-70 (Pharmacosmos, Holbaek, Denmark), 0.1% (w/v) BSA (fraction V), 3.5 mM glucose and 3 mM vamin (Fresenius Kabi, Copenhagen, Denmark), pH adjusted to 7.4. […] Once perfusion of the pancreas was established, a catheter was inserted in the vena portae to collect the venous effluent and the rat was sacrificed by perforation of the diaphragm. After a 30-minute equilibration period, samples were collected every minute for the duration of the protocol. […] Glucagon, insulin, and somatostatin concentrations in venous effluents were quantified by use of validated in-house radioimmunoassays (RIA) as previously described[36] […]
Glucagon concentration in perfusion samples were measured by a validated in-house RIAs using the 4305 antibody, which reacts with the C-terminal epitope of glucagon[36] and no other cleavage products of pro-glucagon. Insulin concentrations were measured with the 2006 antibody, which measures all isoforms of rat insulin. […]

[3] = system: Dr-sstr2a with the ECL2 region of the hSSTR2; assay: Activation of hybrid receptor (ECL2 of hSSTR2 inserted into Dr-sstr2a); format: cell-based; details: preliminary results, peer review file
Text: To further address this, we have begun to perform mutagenesis studies on the Dr-sstr2a.

[4] = system: human SSTR2 (Gi1-3, GoA, GoB); assay: G protein activation (BRET dissociation) assay, panel of Gi/o proteins at hSSTR2; format: cell-based; details: hSSTR2, HEK293T cells
Experimental: as §3, §4

human SSTR2 = human SSTR2 (Homo sapiens, UniProt P30874); assay: PRESTO-Tango β-arrestin recruitment assay, hSSTR2
human SSTR2, sequence (P30874 whole entry): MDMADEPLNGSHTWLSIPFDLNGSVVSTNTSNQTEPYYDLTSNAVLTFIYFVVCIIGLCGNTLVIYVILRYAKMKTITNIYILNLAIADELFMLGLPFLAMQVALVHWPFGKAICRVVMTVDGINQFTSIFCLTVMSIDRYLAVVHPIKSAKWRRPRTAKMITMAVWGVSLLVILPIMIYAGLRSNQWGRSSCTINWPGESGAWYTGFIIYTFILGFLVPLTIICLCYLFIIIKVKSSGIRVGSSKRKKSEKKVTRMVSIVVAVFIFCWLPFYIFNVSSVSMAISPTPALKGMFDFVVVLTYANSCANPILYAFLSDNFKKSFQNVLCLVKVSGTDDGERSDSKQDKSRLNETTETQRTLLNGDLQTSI
Experimental: HTLA cells were given by Prof. Bryan Roth (University of North Carolina, Chapel Hill, US) and were maintained in Dulbecco’s modified Eagle’s medium (DMEM) supplemented with 10% Fetal Bovine Serum (FBS) (Biowest) and 100 U/mL penicillin and 100 µg/mL streptomycin at 37 °C in a humidified incubator supplemented with 5% CO2. Constant selective pressure for tTA-dependent luciferase reporter and a β-arrestin 2 tobacco etch virus protease fusion gene were maintained with the addition of 100 µg/mL hygromycin B and 2 µg/ml puromycin (Tango growth medium).
Briefly, HTLA cells (1 million cells/well) were seeded in 6-well plates in Tango growth medium, and incubated overnight. On day 2, medium was changed to Tango growth medium without hygromycin B and puromycin. Cells were then transfected using Polyfect (Qiagen) according to manufacturer’s protocol. On day 3, 15,000 cells in 40 µL DMEM supplemented with 1% dialyzed FBS (Tango assay medium) per well were seeded in poly-D-lysine-coated white clear-bottom 384 well plates (Corning) and incubated overnight. On day 4, the Tango assay medium was changed and 10 µL of each of the peptide was added at 5x final concentration. The peptides were resuspended in HBSS with 20 mM HEPES, 1 mM of CaCl2, 1 mM of MgCl2, pH adjusted to 7.4 with 1 M NaOH (Tango assay buffer), which was supplemented with 0.1% BSA (Tango ligand buffer). After overnight incubation, on day 5, the medium and the compounds were removed from the cells and 20 µL of 1:20 dilution of BrightGlo (Promega) in Tango assay buffer supplemented with 0.01% pluronic F68 was added to the cells. Plates were incubated for 20 minutes in the dark at room temperature. Luminescence was measured on a Molecular Devices SpectraMax iD5 (Molecular Devices) with each well integrated for 1 second.

T2 sequence (P30874 whole entry): as above
T1 sequence (P30874 whole entry): as above

For `CC(C)C[C@H](N)C(=O)N[C@@H](Cc1ccccc1)C(=O)N[C@H]1CSSC[C@@H](C(=O)N[C@@H](Cc2c[nH]c3ccccc23)C(=O)O)NC(=O)[C@H](CO)NC(=O)[C@H](CCCCN)NC(=O)[C@@H](Cc2c[nH]c3ccccc23)NC(=O)[C@H](Cc2ccccc2)NC1=O` [pG1] (H-LFCF[dW]KSCW-OH; disulfide 3-8), which pEC50 (Dr-sstr2b; replicate 1) is on record?
Its pEC50 is 7.529.

And the pEC50 (Dr-sstr2b; replicate 2)?
Its pEC50 is 7.491.

And the pEC50 (Dr-sstr2b; replicate 3)?
Its pEC50 is 7.611.

What about the pEC50 (Dr-sstr2b; replicate 4) of the same compound?
The pEC50 was 7.82.

What about the “activation of Dr-sstr2b in words” value (Dr-sstr2b; PRESTO-Tango, HTLA cells) of the same compound?
Its value is “activates the zebrafish Dr-sstr2b (n = 3) but not Dr-sstr2a”.

What about the “Hill Slope” value (Dr-sstr2b; Table S4) of the same compound?
The value was 0.90 ± 0.13.

And the “Span ± S.E.M.” value (Dr-sstr2b; Table S4)?
The value was 82.46 ± 4.04.

And the EC50 (Dr-sstr2b; Table S4, HTLA cells)?
The EC50 was 25.3 nM.

And the “Emax ± S.E.M.” value (Dr-sstr2b; Table S4, relative to SS-14)?
The value was 83.12 ± 3.13.

What about the Emax (human SSTR2 (Gi2)) of the same compound?
The Emax was 91 ± 4.6%.

What about the “Hill Slope” value (human SSTR2 (Gi2); Table S2, Gαi2) of the same compound?
The value was 1.11 ± 0.22.

What about the “Span ± S.E.M.” value (human SSTR2 (Gi2); Table S2, Gαi2) of the same compound?
The value was 83.42 ± 5.67.

And the EC50 (human SSTR2 (Gi2); Table S2, Gαi2, HEK293T, means ± S.E.M.)?
Its EC50 is 1.35 nM.

And the Emax (human SSTR2 (GoB))?
The Emax was 76.7 ± 3.62%.

And the “Hill Slope” value (human SSTR2 (GoB); Table S2, GαoB)?
The value was 1.46 ± 0.41.

What about the “Span ± S.E.M.” value (human SSTR2 (GoB); Table S2, GαoB) of the same compound?
The value was 76.77 ± 4.97.

And the EC50 (human SSTR2 (GoB); Table S2, GαoB, HEK293T, means ± S.E.M.)?
Its EC50 is 8.32 nM.

What about the “GoA dissociation at Dr-sstr2b in words” value (Dr-sstr2b (GoA); HEK293T cells) of the same compound?
The value was “only induced GoA dissociation at the Dr-sstr2b but not the Dr-sstr2a”.

And the “Hill Slope” value (Dr-sstr2b (GoA); Table S5, GoA)?
Its value is 0.48 ± 0.10.

What about the “Span ± S.E.M.” value (Dr-sstr2b (GoA); Table S5, GoA) of the same compound?
Its value is 100.43 ± 11.98.

What about the “Emax ± S.E.M.” value (Dr-sstr2b (GoA); Table S5, GoA, % of maximal response relative to SS-14) of the same compound?
Its value is 105.52 ± 10.37%.

And the “pEC50 ± S.E.M.” value (Dr-sstr2b (GoA); Table S5, GoA, HEK293T)?
Its value is 7.95 ± 0.19.

What about the “decrease of glucagon secretion” value (isolated mouse islets; 1 nM peptide, 1 mM glucose, 1 hour, p < 0.01, n = 9) of the same compound?
The value was ~ 33%.

And the “effect on glucagon secretion in high glucose” value (isolated mouse islets; 1 nM peptide, 10 mM glucose)?
The value was “Neither SS-14 nor Consomatin pG1 affected glucagon secretion in high glucose conditions”.

What about the Islet glucagon secretion (isolated mouse islets; 1mM glucose, replicate 1) of the same compound?
The Islet glucagon secretion was 0.1528.

What about the Islet glucagon secretion (isolated mouse islets; 1mM glucose, replicate 2) of the same compound?
Its Islet glucagon secretion is 0.1799.

What about the Islet glucagon secretion (isolated mouse islets; 1mM glucose, replicate 3) of the same compound?
The Islet glucagon secretion was 0.229.

What about the Islet glucagon secretion (isolated mouse islets; 1mM glucose, replicate 4) of the same compound?
Its Islet glucagon secretion is 0.1754.

And the Islet glucagon secretion (isolated mouse islets; 1mM glucose, replicate 5)?
Its Islet glucagon secretion is 0.2817.

What about the Islet glucagon secretion (isolated mouse islets; 1mM glucose, replicate 6) of the same compound?
Its Islet glucagon secretion is 0.2671.

And the Islet glucagon secretion (isolated mouse islets; 1mM glucose, replicate 7)?
Its Islet glucagon secretion is 0.309.

What about the Islet glucagon secretion (isolated mouse islets; 1mM glucose, replicate 8) of the same compound?
Its Islet glucagon secretion is 0.2377.

And the Islet glucagon secretion (isolated mouse islets; 1mM glucose, replicate 9)?
Its Islet glucagon secretion is 0.1574.

And the Islet glucagon secretion (isolated mouse islets; 10mM glucose, replicate 1)?
Its Islet glucagon secretion is 0.1057.

What about the Islet glucagon secretion (isolated mouse islets; 10mM glucose, replicate 2) of the same compound?
The Islet glucagon secretion was 0.1136.

What about the Islet glucagon secretion (isolated mouse islets; 10mM glucose, replicate 3) of the same compound?
The Islet glucagon secretion was 0.1366.

What about the Islet glucagon secretion (isolated mouse islets; 10mM glucose, replicate 4) of the same compound?
Its Islet glucagon secretion is 0.1392.

And the Islet glucagon secretion (isolated mouse islets; 10mM glucose, replicate 5)?
The Islet glucagon secretion was 0.1398.

What about the Islet glucagon secretion (isolated mouse islets; 10mM glucose, replicate 6) of the same compound?
Its Islet glucagon secretion is 0.1241.

What about the Islet glucagon secretion (isolated mouse islets; 10mM glucose, replicate 7) of the same compound?
The Islet glucagon secretion was 0.1488.

And the Islet glucagon secretion (isolated mouse islets; 10mM glucose, replicate 8)?
Its Islet glucagon secretion is 0.2037.

And the Islet glucagon secretion (isolated mouse islets; 10mM glucose, replicate 9)?
The Islet glucagon secretion was 0.1689.

What about the “suppression of glucagon secretion” value (perfused rat pancreas [1]; 0.1 nM, within 5 minute of application, […] glucose, n = 10 rats) of the same compound?
Its value is 24%.

What about the “further suppression of glucagon secretion” value (perfused rat pancreas [1]; 1 nM, subsequent application, […] glucose, n = 10 rats) of the same compound?
The value was 45%.

What about the “glucagon level in words” value (perfused rat pancreas [1]; 10 nM, […] glucose) of the same compound?
Its value is “drastically reduced the glucagon level close to null”.

What about the “recovery of glucagon level after washout” value (perfused rat pancreas [1]; after 0.1 nM, 15-minute washout, baseline 754.9 fmol/min) of the same compound?
Its value is “failed to return to the average baseline level”.

What about the “effect on somatostatin secretion” value (perfused rat pancreas [2]) of the same compound?
The value was “did not affect insulin and somatostatin output at low glucose (3.5 mM)”.

And the “effect on somatostatin secretion” value (perfused rat pancreas [2]; listed as Consomatin pG1)?
The value was “no effect on somatostatin or insulin secretion in 3.5 mM glucose”.

What about the “activation of hybrid receptor in words” value [3] of the same compound?
The value was “activation of this hybrid receptor”.

What about the “Gi/o protein dissociation in words” value [4] of the same compound?
The value was “weaker potencies at dissociating all Gi/o proteins compared to SS-14”.

And the “Gi/o protein dissociation in words” value ([4]; listed as Consomatin pG1)?
The value was “weaker potencies in dissociating different Gαi/o protein compared to SS-14 and octreotide”.

And the EC50 (human SSTR2)?
The EC50 was 3.55 nM.

What about the “activation of hSSTR2 in words” value (human SSTR2; PRESTO-Tango, HTLA cells) of the same compound?
Its value is “potent and selective SSTR2 full agonist”.

What about the “Hill Slope” value (human SSTR2; Table S1) of the same compound?
Its value is 0.50 ± 0.06.

What about the “Span ± S.E.M.” value (human SSTR2; Table S1) of the same compound?
The value was 106.03 ± 6.98.

What about the Emax (human SSTR2; read-out: Emax ± S.E.M., Table S1, % of maximal response relative to SS-14) of the same compound?
Its Emax is 105 ± 3.01%.
